Measured values: patent publication US12364733B1, “Method for treating septic shock” (Inotrem, priority 2018, dated 2025)

System: septic shock patients
Assay: Phase IIa clinical trial with nangibotide in septic shock patients: SOFA score evolution
Type: in vivo, human
Description: This was a randomized, double-blind, two-stage, placebo-controlled study. As described in FIG. 7, the study was composed of 2 stages with a similar treatment regimen, in which 0.3, 1.0 or 3.0 mg/kg/h of nangibotide (corresponding to peptide LR12, having an amino acid sequence as set forth in SEQ ID NO: 9, also known as motrem) was tested versus placebo. All patients with a diagnosis of septic shock were considered for study participation. All potential study patients underwent standard care management procedures. Patients with evidence of septic shock according to the Sepsis-3 definition (Singer et al, JAMA 2016) were considered for inclusion (i.e., patients suffering from sepsis and having (i) persisting hypotension requiring vasopressors to maintain their mean arterial pressure ≥65 mm Hg and (ii) a serum lactate level >2 mmol/L (18 mg/dL) despite adequate volume resuscitation).
After screening for eligibility, patients were randomized to one of the treatment arms. Then, they received either a 5 mg/kg loading dose of nangibotide over 15 minutes followed by a continuous intravenous (i.v.) infusion of nangibotide or a matching placebo on top of standard of care. Treatment with study drug was initiated as early as possible, but no later than 24 hours after the onset of septic shock, defined by the start of vasopressor therapy. Patients were treated until 12 (±2) hours after the resolution of their septic shock (defined as vasopressor withdrawal) with a maximum treatment duration of 5 days (120 hours).
Adverse events (AEs) were coded using the MedDRA dictionary version 18.1. Treatment-emergent adverse events (TEAEs) were summarized and listed. Analysis was performed in 49 septic shock patients. The demographic and baseline characteristics were summarized in a descriptive fashion within each population: categorical variables were summarized by contingency tables (frequencies and percentages). sTREM-1 levels at day 1 were also described (mean, standard deviation, standard error, median, quartiles and range, minimum and maximum values). Mortality rates were reported by frequency and percentage. For continuous endpoints, i.e., the sequential organ failure assessment (SOFA), missing data were imputed using LOCF (Last Observation Carry-Forward). For time-to-event analyses, i.e., duration of invasive mechanical ventilation (IMV), duration of continuous renal replacement therapy (CRRT), survival, censored data techniques were utilized. In addition, a sensitivity analysis of time to event data (except survival) was performed using censoring at maximum limit for the corresponding observation period (i.e., either day 28 or day 90). […] The following comparisons were made: each nangibotide dose arm to placebo, all nangibotide doses combined versus placebo, and dose-response using an ordinal trend test. Exploratory composite endpoint: incidence (number and proportion) of patients alive at day 28 and free of vasopressor, free of IMV and free of CRRT were summarized by treatment and compared between treatments with a Fisher's exact test. For pharmacodynamic markers, log transformed data were represented as percentage change from baseline at day 5 or End of Infusion (EOI) if end of infusion was stopped before day 5. […] “All nangibotide” refers to analyses obtained by pooling data from 0.3, 1 and 3 mg/kg/h nangibotide-treated groups.

[1] = patients with low sTREM-1 at baseline (below median 433 pg/mL), Day 3, 3.0 mg/kg/h
[2] = patients with low sTREM-1 at baseline (below median 433 pg/mL), Day 3, all nangibotide doses pooled
[3] = patients with low sTREM-1 at baseline (below median 433 pg/mL), Day 4, 0.3 mg/kg/h
[4] = patients with low sTREM-1 at baseline (below median 433 pg/mL), Day 4, 1.0 mg/kg/h
[5] = patients with low sTREM-1 at baseline (below median 433 pg/mL), Day 4, 3.0 mg/kg/h
[6] = patients with low sTREM-1 at baseline (below median 433 pg/mL), Day 4, all nangibotide doses pooled
[7] = patients with low sTREM-1 at baseline (below median 433 pg/mL), Day 5, 1.0 mg/kg/h
[8] = whole population, Day 1, 0.3 mg/kg/h
[9] = whole population, Day 1, 1.0 mg/kg/h
[10] = whole population, Day 1, 3.0 mg/kg/h
[11] = whole population, Day 1, all nangibotide doses pooled
[12] = whole population, Day 2, 0.3 mg/kg/h
[13] = whole population, Day 2, 1.0 mg/kg/h
[14] = whole population, Day 2, 3.0 mg/kg/h
[15] = whole population, Day 2, all nangibotide doses pooled
[16] = whole population, Day 3, 0.3 mg/kg/h
[17] = whole population, Day 3, 1.0 mg/kg/h
[18] = whole population, Day 3, 3.0 mg/kg/h
[19] = whole population, Day 3, all nangibotide doses pooled
[20] = whole population, Day 4, 0.3 mg/kg/h
[21] = whole population, Day 4, 1.0 mg/kg/h
[22] = whole population, Day 4, 3.0 mg/kg/h
[23] = whole population, Day 4, all nangibotide doses pooled
[24] = whole population, Day 5, 1.0 mg/kg/h

For “nangibotide (LQEEDAGEYGCM; TLT-1 peptide)”, the “SOFA score evolution (change versus baseline, LOCF), LSMean (SE)” value [1] was −2.10 (1.35), the “SOFA score, estimated difference (SE) vs. placebo” value [1] was 0.01 (1.69) and the “SOFA score evolution (change versus baseline, LOCF), LSMean (SE)” value [2] was −2.10 (0.67). The “SOFA score, estimated difference (SE) vs. placebo” value [2] was 0.02 (1.23), the “SOFA score evolution (change versus baseline, LOCF), LSMean (SE)” value [3] was −2.70 (0.94) and the “SOFA score, estimated difference (SE) vs. placebo” value [3] was −0.57 (1.32). The “SOFA score evolution (change versus baseline, LOCF), LSMean (SE)” value [4] was −1.79 (1.03), the “SOFA score, estimated difference (SE) vs. placebo” value [4] was 0.34 (1.41) and the “SOFA score evolution (change versus baseline, LOCF), LSMean (SE)” value [5] was −2.62 (1.24). The “SOFA score, estimated difference (SE) vs. placebo” value [5] was −0.49 (1.55), the “SOFA score evolution (change versus baseline, LOCF), LSMean (SE)” value [6] was −2.37 (0.62) and the “SOFA score, estimated difference (SE) vs. placebo” value [6] was −0.24 (1.13). For the same substance, the “SOFA score evolution (change versus baseline, LOCF), LSMean (SE)” value (patients with low sTREM-1 at baseline (below median 433 pg/mL), Day 5, 0.3 mg/kg/h) was −2.71 (1.10), the “SOFA score, estimated difference (SE) vs. placebo” value (patients with low sTREM-1 at baseline (below median 433 pg/mL), Day 5, 0.3 mg/kg/h, 0.3 mg/kg) was −0.71 (1.56) and the “SOFA score, estimated difference (SE) vs. placebo” value (patients with low sTREM-1 at baseline (below median 433 pg/mL), Day 5, 0.3 mg/kg/h, listed as nangibotide, 0.3 mg/kg) was −0.71. The “SOFA score evolution (change versus baseline, LOCF), LSMean (SE)” value [7] was −1.93 (1.21), the “SOFA score, estimated difference (SE) vs. placebo” value [7] was 0.06 (1.65) and the “SOFA score evolution (change versus baseline, LOCF), LSMean (SE)” value (patients with low sTREM-1 at baseline (below median 433 pg/mL), Day 5, 3.0 mg/kg/h) was −1.87 (1.46). For the same substance, the “SOFA score, estimated difference (SE) vs. placebo” value (patients with low sTREM-1 at baseline (below median 433 pg/mL), Day 5, 3.0 mg/kg/h, 3 mg/kg) was 0.12 (−1.82), the “SOFA score, estimated difference (SE) vs. placebo” value (patients with low sTREM-1 at baseline (below median 433 pg/mL), Day 5, 3.0 mg/kg/h, listed as nangibotide, 3 mg/kg) was 0.12 and the “SOFA score evolution (change versus baseline, LOCF), LSMean (SE)” value (patients with low sTREM-1 at baseline (below median 433 pg/mL), Day 5, all nangibotide doses pooled) was −2.17 (0.73). For the same substance, the “SOFA score evolution (change versus baseline, LOCF), LSMean (SE)” value [8] was −0.65 (0.52), the “SOFA score, estimated difference (SE) vs. placebo” value [8] was 0.26 (0.75) and the “SOFA score evolution (change versus baseline, LOCF), LSMean (SE)” value [9] was −0.39 (0.54). The “SOFA score, estimated difference (SE) vs. placebo” value [9] was 0.53 (0.77), the “SOFA score evolution (change versus baseline, LOCF), LSMean (SE)” value [10] was −0.33 (0.54) and the “SOFA score, estimated difference (SE) vs. placebo” value [10] was 0.59 (0.76). The “SOFA score evolution (change versus baseline, LOCF), LSMean (SE)” value [11] was −0.45 (0.31), the “SOFA score, estimated difference (SE) vs. placebo” value [11] was 0.46 (0.62) and the “SOFA score evolution (change versus baseline, LOCF), LSMean (SE)” value [12] was −2.27 (0.63). The “SOFA score, estimated difference (SE) vs. placebo” value [12] was −0.94 (0.91), the “SOFA score evolution (change versus baseline, LOCF), LSMean (SE)” value [13] was −1.97 (0.65) and the “SOFA score, estimated difference (SE) vs. placebo” value [13] was −0.64 (0.92). The “SOFA score evolution (change versus baseline, LOCF), LSMean (SE)” value [14] was −0.91 (0.65), the “SOFA score, estimated difference (SE) vs. placebo” value [14] was 0.42 (0.92) and the “SOFA score evolution (change versus baseline, LOCF), LSMean (SE)” value [15] was −1.72 (0.37). For the same substance, the “SOFA score, estimated difference (SE) vs. placebo” value [15] was −0.38 (0.75), the “SOFA score evolution (change versus baseline, LOCF), LSMean (SE)” value [16] was −2.67 (0.68) and the “SOFA score, estimated difference (SE) vs. placebo” value [16] was −1.42 (0.98). For the same substance, the “SOFA score evolution (change versus baseline, LOCF), LSMean (SE)” value [17] was −1.87 (0.71), the “SOFA score, estimated difference (SE) vs. placebo” value [17] was −0.62 (1.00) and the “SOFA score evolution (change versus baseline, LOCF), LSMean (SE)” value [18] was −0.91 (0.70). The “SOFA score, estimated difference (SE) vs. placebo” value [18] was 0.34 (1.00), the “SOFA score evolution (change versus baseline, LOCF), LSMean (SE)” value [19] was −1.82 (0.40) and the “SOFA score, estimated difference (SE) vs. placebo” value [19] was −0.57 (0.81). For the same substance, the “SOFA score evolution (change versus baseline, LOCF), LSMean (SE)” value [20] was −2.91 (0.67), the “SOFA score, estimated difference (SE) vs. placebo” value [20] was −1.50 (0.96) and the “SOFA score evolution (change versus baseline, LOCF), LSMean (SE)” value [21] was −1.95 (0.70). The “SOFA score, estimated difference (SE) vs. placebo” value [21] was −0.53 (0.98), the “SOFA score evolution (change versus baseline, LOCF), LSMean (SE)” value [22] was −1.16 (0.69) and the “SOFA score, estimated difference (SE) vs. placebo” value [22] was 0.26 (0.98). The “SOFA score evolution (change versus baseline, LOCF), LSMean (SE)” value [23] was −2.00 (0.40), the “SOFA score, estimated difference (SE) vs. placebo” value [23] was −0.59 (0.80) and the “SOFA score evolution (change versus baseline, LOCF), LSMean (SE)” value (whole population, Day 5, 0.3 mg/kg/h) was −2.91 (0.71). For the same substance, the “SOFA score, estimated difference (SE) vs. placebo” value (whole population, Day 5, 0.3 mg/kg/h, 0.3 mg/kg) was −1.66 (1.03), the “SOFA score, estimated difference (SE) vs. placebo” value (whole population, Day 5, 0.3 mg/kg/h, listed as nangibotide, 0.3 mg/kg) was −1.66 and the “SOFA score evolution (change versus baseline, LOCF), LSMean (SE)” value [24] was −2.03 (0.74). The “SOFA score, estimated difference (SE) vs. placebo” value [24] was −0.78 (1.04), the “SOFA score evolution (change versus baseline, LOCF), LSMean (SE)” value (whole population, Day 5, 3.0 mg/kg/h) was −0.90 (0.74) and the “SOFA score, estimated difference (SE) vs. placebo” value (whole population, Day 5, 3.0 mg/kg/h, 3 mg/kg) was 0.34 (1.04). For the same substance, the “SOFA score, estimated difference (SE) vs. placebo” value (whole population, Day 5, 3.0 mg/kg/h, listed as nangibotide, 3 mg/kg) was 0.34, the “SOFA score evolution (change versus baseline, LOCF), LSMean (SE)” value (whole population, Day 5, all nangibotide doses pooled) was −1.95 (0.42) and the “SOFA score decrease during the first 5 days vs. placebo” value (whole population, no statistically significant differences) was “consistent numerical trend in favor of nangibotide”.
